One data set concerns the target T1, PfkA (Bacillus subtilis, UniProt O34529).
T1 construct: full-length, N-terminal His6-Gly3 tag (from primer), recombinant in E. coli BW25113, pTrc99KK, Ni-NTA
Nature of the data set: coupled spectrophotometric assay, NADH at […] nm. The class given is biochemical.

Substrate in the data set “purified protein”: CC(=O)C(=O)O
Nature of the data set: purified protein. It counts as biochemical, Bacillus subtilis. The note with it: 1 mM ATP, 0.05 mM acetyl-CoA, 15 mM KHCO3, 7 mM MgSO4, 135 mM TEA pH 8, room temperature, pyruvate 0.04-5.0 mM.

Usually Ki stands for the equilibrium dissociation constant of an inhibitor or competing ligand from its target. A higher Ki goes with weaker binding. Usually Km stands for the concentration of substrate that gives half-maximal velocity.

T1 sequence (O34529 2-319): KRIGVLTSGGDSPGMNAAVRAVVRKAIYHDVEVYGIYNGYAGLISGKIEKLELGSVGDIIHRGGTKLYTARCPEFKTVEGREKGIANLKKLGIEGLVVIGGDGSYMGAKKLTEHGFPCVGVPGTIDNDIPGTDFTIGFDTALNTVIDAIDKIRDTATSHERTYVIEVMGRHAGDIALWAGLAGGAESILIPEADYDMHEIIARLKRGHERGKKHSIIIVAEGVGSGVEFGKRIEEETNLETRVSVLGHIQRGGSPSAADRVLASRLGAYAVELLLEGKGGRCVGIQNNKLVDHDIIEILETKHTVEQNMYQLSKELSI

Take `C=C(OP(=O)(O)O)C(=O)O` [PEP, phosphoenolpyruvate]: at PfkA, the Ki came out at 40 µM. In other words, the double-digit micromolar range.

B1: PycA (Bacillus subtilis subsp. subtilis str. 168) (protein)
chain: SQQSIQKVLVANRGEIAIRIFRACTELNIRTVAVYSKEDSGSYHRYKADEAYLVGEGKKPIDAYLDIEGIIDIAKRNKVDAIHPGYGFLSENIHFARRCEEEGIVFIGPKSEHLDMFGDKVKAREQAEKAGIPVIPGSDGPAETLEAVEQFGQANGYPIIIKASLGGGGRGMRIVRSESEVKEAYERAKSEAKAAFGNDEVYVEKLIENPKHIEVQVIGDKQGNVVHLFERDCSVQRRHQKVIEVAPSVSLSPELRDQICEAAVALAKNVNYINAGTVEFLVANNEFYFIEVNPRVQVEHTITEMITGVDIVQTQILVAQGHSLHSKKVNIPEQKDIFTIGYAIQSRVTTEDPQNDFMPDTGKIMAYRSGGGFGVRLDTGNSFQGAVITPYYDSLLVKLSTWALTFEQAAAKMVRNLQEFRIRGIKTNIPFLENVAKHEKFLTGQYDTSFIDTTPELFNFPKQKDRGTKMLTYIGNVTVNGFPGIGKKEKPAFDKPLGVKVDVDQQPARGTKQILDEKGAEGLANWVKEQKSVLLTDTTFRDAHQSLLATRIRSHDLKKIANPTAALWPELFSMEMWGGATFDVAYRFLKEDPWKRLEDLRKEVPNTLFQMLLRSSNAVGYTNYPDNVIKEFVKQSAQSGIDVFRIFDSLNWVKGMTLAIDAVRDTGKVAEAAICYTGDILDKNRTKYDLAYYTSMAKELEAAGAHILGIKDMAGLLKPQAAYELVSALKETIDIPVHLHTHDTSGNGIYMYAKAVEAGVDIIDVAVSSMAGLTSQPSASGFYHAMEGNDRRPEMNVQGVELLSQYWESVRKYYSEFESGMKSPHTEIYEHEMPGGQYSNLQQQAKGVGLGDRWNEVKEMYRRVNDMFGDIVKVTPSSKVVGDMALYMVQNNLTEKDVYEKGESLDFPDSVVELFKGNIGQPHGGFPEKLQKLILKGQEPITVRPGELLEPVSFEAIKQEFKEQHNLEISDQDAVAYALYPKVFTDYVKTTESYGDISVLDTPTFFYGMTLGEEIEVEIERGKTLIVKLISIGEPQPDATRVVYFELNGQPREVVIKDESIKSSVQERLKADRTNPSHIAASMPGTVIKVLAEAGTKVNKGDHLMINEAMKMETTVQAPFSGTIKQVHVKNGEPIQTGDLLLEIEKA
notes: full-length, N-terminal His6-Gly3 tag (from primer), recombinant in E. coli BW25113, pTrc99KK, Ni-NTA
On to B1, for which the Michaelis constant (Km) in “purified protein” worked out at 100 µM.

(Values after publication PMC6079084, “Capacity for instantaneous catabolism of preferred and non-preferred carbon sources in Escherichia coli and Bacillus subtilis” (Scientific Reports, 2018).)
